# Source: US6706509B2, “Oncoprotein protein kinase” (The Regents of the University of California, priority 1993, dated 2004)
# What was measured:
# jun-B = experiment: Northern blot of jun-B expression in Jurkat cells; type: cell-based, human; conditions: 40 minutes; for effect on jun-B induction by TPA: A23187 1 μg/ml or CsA 100 ng/ml
# Experimental: Exponentially growing Jurkat cells (10^6/ml) grown in complete RPMI medium was pretreated with CsA for 15 minutes when applicable, then subjected to various treatments for another 40 minutes. Total cytoplasmic RNA was extracted as previously described (Angel, et al., Cell, 49:729-739, 1987). 10 μg RNA was denatured by incubating with glyoxal for 60 minutes at 55° C. and fractionated on a 1% agarose gel in phosphate buffer. The fractionated RNA was blotted to Zetabind Nylon membrane (CUNO Labs) and hybridized to ^32P-labelled cDNA probes specific for c-jun, jun-B, jun-D, c-fos, α-tubulin and IL-2.
# During the first stage of T lymphocyte activation, early response genes are rapidly included (Crabtree, Science, 243:355,361, 1989; Zipfel, et al., Mol Cell Bio., 9:1041-1048, 1989). Induction of jun and fos genes during activation of the Jurkat T cell line was investigated. Two different co-stimulatory paradigms were used, one employing TPA and the Ca^2+ ionophore A23187, and the second based on simultaneous stimulation of the TCR complex with an antibody to its CD3 component (OKT3; Van Wauwe, et al., J. Immunol., 124:2708-2713, 1980) and stimulation of the CD28 auxiliary receptor with an anti-CD28 antibody (9.3; Hansen, et al., Immunogenetics, 10:247-260, 1993; June, et al., Immunol. Today, 11:211-216, 1990). Total cytoplasmic RNA was extracted from Jurkat cells that were incubated with 50 ng/ml TPA (T), 1 μg/ml A23187 (A) or 100 ng/ml cyclosporin A (CsA) for 40 minutes, either alone or in combinations, as indicated. After fractionation of 10 μg samples on an agarose gel and transfer to nylon membrane, the level of c-jun, jun-B, jun-D, c-fos and α-tubulin expression was determined by hybridization to random primed cDNA probes.
# [1] = system: AP-1 responsive human collagenase promoter (-73Col-LUC); experiment: AP-1 transcriptional activity, -73Col-LUC luciferase reporter in Jurkat cells; type: cell-based; conditions: for -73Col-LUC luciferase activity, agent administered alone: TPA 50 ng/ml or A23187 1 μg/ml, 9 hours; for -73Col-LUC luciferase activity, two costimuli together: TPA+A23187 or anti-CD3+anti-CD28
# Experimental: T Ag Jurkat cells, a derivative of the human Jurkat T-cell line stably transfected with the SV40 large T antigen (a gift from Dr. G. Crabtree) were grown to 10^6/ml, then resuspended at 2×10^7/ml in fresh complete medium. 10^7 cells (0.5 ml) were mixed with reporter plasmids (5 μg, −79 jun-LUC; 10 μg, −73/+63 Col-LUC or −60/+63 Col-LUC; 5 μg IL2-LUC) at room temperature for 10 minutes, then electroporated at 250 V, 960 uF in a 0.4 cm cuvette using a Bio-Rad GenePulser. After electroporation, cells were immediately put on ice for 10 minutes, then resuspended in 10 ml complete medium for 24 hours before stimulation. 0.5 μg of pSRaIIc-Jun were used to transfect 10^7 Jurkat cells. Luciferase activity was determined as described (Deng and Karin, supra., 1993).
# The effects of the different stimuli on AP-1 transcriptional activity in Jurkat cells were examined using a truncated, AP-1 responsive, human collagenase promoter (Angel, et al., Cell, 49:729-739, 1987) fused to the luciferase (LUC) reporter gene. Jurkat cells were transfected with 10 μg of either −73Col-LUC or −60Col-LUC reporter plasmids. 24 hours after transfection, the cells were aliquoted into 24 well plates and incubated for 9 hours with 50 ng/ml TPA, 1 μg/ml A23187 or 100 ng/ml CsA, either alone or in combinations, as indicated. The cells were harvested and luciferase activity was determined. The results shown are averages of three experiments done in triplicates.
# JNK = experiment: Solid-state phosphorylation assay of JNK on GSTcJun(1-223)-GSH agarose beads, Jurkat cells; type: cell-based, human; conditions: for JNK activation together with suboptimal dose of TPA: A23187, anti-CD3 or anti-CD28 plus suboptimal TPA; for JNK activation, solid-state assay, agent alone: TPA 50 ng/ml or A23187 1 μg/ml, 15 minutes
# Experimental: Exponentially growing cells were stimulated for the indicated times and hypotonic detergent cellular extracts were prepared as described (Hibi, et al., Genes and Dev., supra, 1993). The solid-state phosphorylation assay for measuring JNK activity was performed by incubated extracts with GSTcJun(1-223)-GSH agarose beads as described (Hibi, et al., supra., 1993) and as in Example 2. ERK1 and 2 activity was assayed by an immunecomplex kinase assay using MBP as a substrate (Minden, et al., Nature, 1993).
# JNK can be retained on GSTcJun-glutathione (GSH) agarose affinity resin and its kinase activity measured by phosphorylation of GSTcJun. WCE (50 μg) of Jurkat cells treated as described above were incubated with 5 μl of GSH agarose beads coated with 10 μg GST-cJun (1-223) for 12 hours at 4° C. After extensive washing, the beads were incubated in kinase buffer containing γ-^32P-ATP for 20 minutes at 30° C., after which the proteins were dissociated by incubation in SDS sample buffer and separated by SDS-PAGE (FIG. 13B). The 49 kD band corresponds to GST-cJun (1-223). The faster migrating bands are degradation products (Hibi, et al., supra, 1993).
# WCE (50 μg) of Jurkat cells treated as described above were incubated with GSTcJun(1-223)-GSH agarose beads and assayed for JNK activity using the solid-state kinase assay. The same WCE (20 μg) were immunoprecipitated with anti-ERK2 antibodies and assayed for MBP-kinase activity.
# WCE (50 μg) of Jurkat cells treated as described in Panel A with various stimuli alone or their combinations were incubated with GSTcJun(1-223)-GSH agarose beads and assayed for JNK activity using solid-state kinase assay. The same samples (20 μg) were also assayed for MBP-kinase activity as described in FIG. 16B.
Molecule,effect on jun-B induction by TPA (jun-B),"-73Col-LUC luciferase activity, agent administered alone [1]","-73Col-LUC luciferase activity, two costimuli together [1]","JNK activation, solid-state assay, costimulation with TPA (JNK; A23187 1 μg/ml plus TPA 50 ng/ml)",JNK activation together with suboptimal dose of TPA (JNK; Jurkat),"JNK activation, solid-state assay, agent alone (JNK; Jurkat)","jun-B expression, agent alone (jun-B; TPA 50 ng/ml)","JNK activation, suboptimal dose of TPA by itself (JNK; Jurkat)","JNK activation, combined treatment with A23187 (JNK; Jurkat, anti-CD3 or anti-CD28 plus A23187)","effect on induction of -73Col-LUC ([1]; CsA 100 ng/ml with TPA+A23187, 9 hours)","JNK activation, solid-state assay, CsA added to TPA+A23187 (JNK; CsA 100 ng/ml)","JNK activation by suboptimal TPA+A23187, effect of CsA (JNK; Jurkat)","JNK activation by anti-CD3+anti-CD28, effect of CsA (JNK; Jurkat, CsA 100 ng/ml)"
CNc1ccc2oc(C[C@H]3O[C@@]4(CC[C@H]3C)O[C@H]([C@H](C)C(=O)c3ccc[nH]3)[C@H](C)C[C@H]4C)nc2c1C(=O)O [A23187],not affected,marginal effects,synergistic activation,strongly potentiated,strong synergistic activation of JNK,had no effect,,,,,,,
CCCCCCCCCCCCCC(=O)O[C@@H]1[C@@H](C)[C@@]2(O)[C@@H](C=C(CO)C[C@]3(O)C(=O)C(C)=C[C@@H]23)[C@H]2C(C)(C)[C@]12OC(C)=O [TPA],,marginal effects,synergistic activation,,,activation of JNK,induced,does not lead to JNK activation,,,,,
anti-CD3: anti-CD3 monoclonal antibody OKT3,,,synergistic activation,,strong synergistic activation of JNK,,,,efficiently activated,,,,
cyclosporin A [CsA],not affected,,,,,,,,,inhibited,inhibited,completely inhibited,partially attenuated this effect
